# Settings: buffer; pH 7.4; 200.0 µM
row,SMILES,solubility kinetic
1,CS(=O)(=O)c1ccc(C(=O)NCc2ccc(F)cc2)cc1,38.5 µg/mL
2,COc1cccc(C2N(c3ccccc3)CCN2c2ccccc2)c1OC,1 µg/mL
3,Cn1c(C2CCCCC2)nc2c1c(=O)[nH]c(=O)n2Cc1ccccc1,16.7 µg/mL
4,CCOc1ccc(OCCSc2nc(N)cc(=O)[nH]2)cc1,4.1 µg/mL
5,Oc1cc2c(cc1CN1CCN(c3ccc(F)cc3)CC1)OCO2,5.7 µg/mL
6,COc1ccc(OCC(=O)N2CCc3ccccc3C2)cc1,29.8 µg/mL
7,O=C(CC1S/C(=N/N=C2CCCCCC2)NC1=O)Nc1ccccc1F (stereo not given),> 56.5 µg/mL
8,CC(C)(Oc1ccc(Cl)cc1)C(=O)O/N=C(\N)c1ccncc1,34.3 µg/mL
9,COc1ccccc1NC(=O)CCn1c(=S)oc2ccccc21,7 µg/mL
10,Cn1c(SCC(=O)NCc2ccco2)nnc1C1CC1,> 43.9 µg/mL
11,CCCn1c(COc2ccc(C(=O)O)cc2)nc2ccccc21,> 46.6 µg/mL
12,Cc1ccccc1NC(=O)NCCCCc1ccccc1,1.5 µg/mL
13,CC(=O)Cc1nsc(Nc2ccc(C)cc2)n1,35.9 µg/mL
14,O=C(CSc1nc(C(F)(F)F)cc(=O)[nH]1)N1CCCC1,> 46.1 µg/mL
15,CC(=O)c1ccc(NC(=O)/C(C#N)=C/c2ccncc2)cc1,43.2 µg/mL
16,Cc1ccccc1S(=O)(=O)N1CCN(C)CC1,> 38.2 µg/mL
17,Cc1ccc(/C=C/C(=O)OCC(=O)NCCc2ccc(S(N)(=O)=O)cc2)o1,> 58.9 µg/mL
18,COc1ccccc1NC(=O)COc1ccc(C(=O)NCC2CCCO2)cc1OC (stereo not given),51.5 µg/mL
19,CCn1cc(C(=O)NCc2ccco2)c(=O)c2ccc(C)nc21,2.4 µg/mL
20,O=C(NCCN1CCOCC1)c1c(O)nc2ccccn2c1=O,> 47.7 µg/mL
21,CCOC(=O)c1ccc(NC(=O)Cc2cccs2)cc1,> 43.4 µg/mL
22,CC(=O)c1cn(N2CCCCC2)c(=O)[nH]c1=O,> 35.6 µg/mL

row,SMILES,solubility kinetic
1,O=C(COC(=O)c1ccc([N+](=O)[O-])o1)Nc1ccc(N2CCOCC2)cc1,50.6 µg/mL
2,CNCCc1ccc(O)c(O)c1.Cl,17.2 µg/mL
3,COC(=O)c1ccc(Oc2nc(NC(C)C)nc(NC(C)C)n2)cc1,1.4 µg/mL
4,Cc1cc(C)c(N=Cc2c(O)c3ccccc3oc2=O)c(C)c1,< 0.7 µg/mL
5,CCS(=O)(=O)c1ncc(CO)n1CCc1ccccc1,> 44.2 µg/mL
6,CC1=C(C(=O)OC2CCCC(C)C2)C(c2ccccc2)NC(=O)N1 (stereo not given),4.3 µg/mL
7,O=[N+]([O-])c1ccc(NCCN2CCOCC2)c([N+](=O)[O-])c1,> 44.4 µg/mL
8,CCOc1ccccc1C(=O)Nc1cccc2ccccc12,< 0.6 µg/mL
9,Cc1ccc(S(=O)(=O)N2CCCCC2C(=O)Nc2ccc(N(C)C)cc2)cc1 (stereo not given),5.7 µg/mL
10,NC(=O)CSc1nc(C23CC4CC(CC(C4)C2)C3)nc2ccccc12,1.2 µg/mL
11,Cc1ccc2nc(-c3ccccn3)cc(C(=O)NC(C)C(C)(C)C)c2c1 (stereo not given),3.2 µg/mL
12,Cl.NC(Cc1ccccc1)C(=O)N1CCCCC1 (stereo not given),> 40.3 µg/mL
13,CCOC(=O)c1cc(CC)sc1NC(=O)COC(=O)C1CCC1,< 0.7 µg/mL
14,Cc1[nH]c2ccc(C(=O)NCCCN3CCCCC3)cc2c1C,> 47 µg/mL
15,O=C(Cn1c(=O)[nH]c2ccccc2c1=O)Nc1cccnc1,> 44.4 µg/mL
16,CC(=O)c1ccc(NCCC(=O)c2ccccc2)cc1,< 0.6 µg/mL
17,COc1ccc(C2C3(C#N)C(N)=NC(OC)(OC)C23C#N)cc1 (stereo not given),> 46.8 µg/mL
18,C1=CCN(Cc2ccccc2)C1,4.1 µg/mL
19,O=C(COC(=O)CCC(=O)c1cccs1)NCc1ccccc1,45.6 µg/mL
20,CC(C)C(NC(=O)C1CCCCC1)C(=O)NC1CCCC(C)C1C (stereo not given),3.9 µg/mL
21,CCCCOc1ccc(CON(C(C)=O)C(C)=O)cc1Cl,2.6 µg/mL
22,CC(=O)c1cccc(S(=O)(=O)NCCC(=O)O)c1,25.4 µg/mL

row,SMILES,solubility kinetic
1,COc1ccc(-n2c(=S)[nH]c(=O)c3cccnc32)cc1,11 µg/mL
2,CSc1nc(SCCN(C)C)c2c3c(sc2n1)COC(C)(C)C3,37.4 µg/mL
3,O=C(c1ccc(F)cc1)N1CCN(c2ccccn2)CC1,> 42.8 µg/mL
4,O=c1nc(Nc2ccccc2)oc2ccccc12,26.8 µg/mL
5,Cn1c(N)c(C(=O)COC(=O)COc2ccc(Cl)cc2Cl)c(=O)n(C)c1=O,4.7 µg/mL
6,CC1CCN(C(=O)COC(=O)/C=C/c2ccco2)CC1,> 41.6 µg/mL
7,COC(=O)c1ccc(S(=O)(=O)N2CCC(O)CC2)n1C,> 45.4 µg/mL
8,Cc1nc(N2CCN(C)CC2)c2cc(-c3ccccc3)sc2n1,1.8 µg/mL
9,O=C(Cc1cccs1)Nc1ccccc1F,> 35.3 µg/mL
10,CCOC(=O)C1(Cc2ccc(Cl)cc2)CCN(C2CCC2)CC1,44 µg/mL
11,CCS(=O)(=O)N1CCC(c2nc3ccccc3[nH]2)CC1,40 µg/mL
12,COc1ccccc1NC(=O)/C(C#N)=C/c1ccncc1,36 µg/mL
13,O=C(Nc1c(O)c2ccccc2[nH]c1=O)c1ccco1,> 40.5 µg/mL
14,C=CCC(C(=O)OC)(C(=O)OC)c1ccccc1[N+](=O)[O-],> 44 µg/mL
15,CCCCc1nc2ccc(S(=O)(=O)O)cc2[nH]1,31.4 µg/mL
16,O=S(=O)([O-])CCC[n+]1ccc(Oc2ccccc2)cc1,21 µg/mL
17,O=C(Cc1ccc([N+](=O)[O-])cc1)Nc1ccc(Cl)cc1,4.5 µg/mL
18,CCS(=O)(=O)N1CCC(N2CCC(C)CC2)CC1.O=C(O)C(=O)O,53.3 µg/mL
19,CN(CCN1CCOCC1)Cc1nc(-c2ccc3c(c2)OCO3)no1,48.5 µg/mL
20,COc1ccc(/C=C(\C#N)C(=O)NCc2ccccc2)cc1,2.2 µg/mL
21,COCCCn1c(=O)c2ccccc2n(Cc2cccc(C)c2)c1=O,42.6 µg/mL
22,COc1cccc(-c2cc(C(=O)NCC3CCCO3)on2)c1 (stereo not given),> 45.3 µg/mL

row,SMILES,solubility kinetic
1,O=C(Nc1ccccc1Cl)c1ccc(-c2ccccn2)s1,0.8 µg/mL
2,Cn1c(SCC(=O)Nc2sccc2C(N)=O)nc2ccccc2c1=O,3.8 µg/mL
3,O=S1(=O)CCN(Cc2ccc(F)cc2)CC1,> 36.5 µg/mL
4,Cc1c(C(=O)NCC2CCCO2)oc2c(Cl)cccc12 (stereo not given),> 44.1 µg/mL
5,COC(=O)c1cc(Cl)nc2ccccc12,7.9 µg/mL
6,CCCc1ccc(-c2ccc(-c3noc(-c4ccncc4)n3)cc2)nc1,< 0.2 µg/mL
7,NC(=O)COc1ccc(NS(=O)(=O)Cc2ccccc2)cc1,46.1 µg/mL
8,COc1ccccc1OCCNC(=O)CCS(=O)(=O)c1ccccc1,> 54.5 µg/mL
9,CC(Cc1c[nH]c2ccccc12)C(=O)NCc1ccco1 (stereo not given),> 42.4 µg/mL
10,O=C(CCl)Nc1ncc(S(=O)(=O)c2ccc([N+](=O)[O-])cc2)s1,> 54.3 µg/mL
11,COc1ccccc1C(=O)NC(=O)CSc1nnc2ccccn12,> 51.4 µg/mL
12,CC(=O)Nc1ccc(N/C=C/C(=O)c2ccc(Cl)cc2)cc1,2.4 µg/mL
13,COc1ccccc1OCCC(=O)Nc1ccc2c(c1)OCO2,> 47.3 µg/mL
14,N#CCCN(Cc1ccncc1)C(=S)NC1CC2C=CC1C2 (stereo not given),46.3 µg/mL
15,Cc1ccc(O)c(-c2cc(-c3ccc(F)cc3)no2)c1,< 0.6 µg/mL
16,CCCn1c(SCC(=O)NCCCN2CCCC2=O)nc2ccccc2c1=O,> 60.4 µg/mL
17,Cc1csc(NC(=O)c2c(-c3ccccc3)noc2C)n1,37.4 µg/mL
18,CCCC(=O)Nc1cc(S(=O)(=O)N2CCOCC2)ccc1N1CCCCC1,> 59.3 µg/mL
19,O=C(CN1C(=O)C2(OCCO2)c2cc(Br)ccc21)NO,46.7 µg/mL

# Reference: PubChem BioAssay AID1996
